Patent EP4748373A1, “PHARMACEUTICAL COMPOSITION CONTAINING HETEROCYCLIC COMPOUND” (Sagimet Biosciences Inc., priority 2023, dated 2025)
Converted amounts (≈) assume the structure as drawn.

Assay: equilibrium solubility experiments in buffer media at different pH conditions
Type: physicochemical
Settings: for solubility at 1 h / solubility at 22 h: buffer media, thermodynamic from solid
Description: Additionally, the present invention conducted equilibrium solubility experiments of the monohydrate crystalline API, amorphous API, and hot-melt extrudate dispersion intermediate in buffer media at different pH conditions. Table 3. Summary of equilibrium solubility (µg/ml) of monohydrate crystalline API, amorphous API, and hot-melt extrudate dispersion intermediate

[1] = pH 1.2, simulated gastric fluid, pH 1.2 buffer
[2] = pH 2, simulated gastric fluid, pH 2.0 buffer
[3] = pH 4, aqueous buffer, pH 4.0 buffer
[4] = pH 4.5, aqueous buffer, pH 4.5 buffer
[5] = pH 5, aqueous buffer, pH 5.0 buffer
[6] = pH 6, aqueous buffer, pH 6.0 buffer
[7] = pH 6.8, aqueous buffer, pH 6.8 buffer
[8] = pH 7.5, aqueous buffer, pH 7.5 buffer

## Cc1nnc(-c2cc(C(=O)N3CCC(c4ccc(C#N)cc4)CC3)c(C)cc2C2CCC2)[nH]1 [4-[1-[4-cyclobutyl-2-methyl-5-(5-methyl-1H-1,2,4-triazol-3-yl)benzoyl]piperidin-4-yl]benzonitrile]
[1]
  solubility at 1 h: 30.3 µg/mL (≈ 68.9 µM)
  solubility at 22 h: 27.2 µg/mL (≈ 61.8 µM)
[2]
  solubility at 1 h: 3.57 µg/mL (≈ 8.12 µM)
  solubility at 22 h: 3.22 µg/mL (≈ 7.33 µM)
pH 3, aqueous buffer, pH 3.0 buffer
  solubility at 1 h: 1.07 µg/mL (≈ 2.43 µM)
[3]
  solubility at 1 h: 0.68 µg/mL (≈ 1.55 µM)
  solubility at 22 h: 0.6 µg/mL (≈ 1.36 µM)
[4]
  solubility at 1 h: 0.6 µg/mL (≈ 1.36 µM)
  solubility at 22 h: 0.59 µg/mL (≈ 1.34 µM)
[5]
  solubility at 1 h: 0.47 µg/mL (≈ 1.07 µM)
  solubility at 22 h: 0.51 µg/mL (≈ 1.16 µM)
[6]
  solubility at 1 h: 0.5 µg/mL (≈ 1.14 µM)
  solubility at 22 h: 0.45 µg/mL (≈ 1.02 µM)
[7]
  solubility at 1 h: 0.44 µg/mL (≈ 1 µM)
  solubility at 22 h: 0.42 µg/mL (≈ 0.955 µM)
[8]
  solubility at 1 h: 0.42 µg/mL (≈ 0.955 µM)
  solubility at 22 h: 0.43 µg/mL (≈ 0.978 µM)

## Cc1nnc(-c2cc(C(=O)N3CCC(c4ccc(C#N)cc4)CC3)c(C)cc2C2CCC2)[nH]1 [Compound of formula (I) (amorphous API), 4-[1-[4-cyclobutyl-2-methyl-5-(5-methyl-1H-1,2,4-triazol-3-yl)benzoyl]piperidin-4-yl]benzonitrile]
pH 1.2 buffer
  1-h solubility: 50.93 µg/mL
  22-h solubility: 48.62 µg/mL
pH 2.0 buffer
  1-h solubility: 4.52 µg/mL
  22-h solubility: 4.45 µg/mL
pH 3.0 buffer
  1-h solubility: 2.14 µg/mL
  22-h solubility: 2.14 µg/mL
pH 4.0 buffer
  1-h solubility: 0.76 µg/mL
  22-h solubility: 0.74 µg/mL
pH 4.5 buffer
  1-h solubility: 0.65 µg/mL
  22-h solubility: 0.57 µg/mL
pH 5.0 buffer
  1-h solubility: 0.51 µg/mL
  22-h solubility: 0.42 µg/mL
pH 6.0 buffer
  1-h solubility: 0.46 µg/mL
  22-h solubility: 0.44 µg/mL
pH 6.8 buffer
  1-h solubility: 0.46 µg/mL
  22-h solubility: 0.45 µg/mL
pH 7.5 buffer
  1-h solubility: 0.54 µg/mL
  22-h solubility: 0.48 µg/mL

## Cc1nnc(-c2cc(C(=O)N3CCC(c4ccc(C#N)cc4)CC3)c(C)cc2C2CCC2)[nH]1 [Compound of formula (I) (monohydrate crystalline form)] [4-[1-[4-cyclobutyl-2-methyl-5-(5-methyl-1H-1,2,4-triazol-3-yl)benzoyl]piperidin-4-yl]benzonitrile]
pH 3.0 buffer
  22-h solubility: 0.97 µg/mL
